The text below walks through data of patent US11452717B2, “Small molecule activators of nicotinamide phosphoribosyltransferase (NAMPT) and uses thereof” (Sanford Burnham Prebys Medical Discovery Institute, priority 2017, dated 2022).

Molecules are shown by their SMILES. pEC50: −log10 of the molar value.

Sequence of NAMPT enzyme (P43490 whole entry, species assumed): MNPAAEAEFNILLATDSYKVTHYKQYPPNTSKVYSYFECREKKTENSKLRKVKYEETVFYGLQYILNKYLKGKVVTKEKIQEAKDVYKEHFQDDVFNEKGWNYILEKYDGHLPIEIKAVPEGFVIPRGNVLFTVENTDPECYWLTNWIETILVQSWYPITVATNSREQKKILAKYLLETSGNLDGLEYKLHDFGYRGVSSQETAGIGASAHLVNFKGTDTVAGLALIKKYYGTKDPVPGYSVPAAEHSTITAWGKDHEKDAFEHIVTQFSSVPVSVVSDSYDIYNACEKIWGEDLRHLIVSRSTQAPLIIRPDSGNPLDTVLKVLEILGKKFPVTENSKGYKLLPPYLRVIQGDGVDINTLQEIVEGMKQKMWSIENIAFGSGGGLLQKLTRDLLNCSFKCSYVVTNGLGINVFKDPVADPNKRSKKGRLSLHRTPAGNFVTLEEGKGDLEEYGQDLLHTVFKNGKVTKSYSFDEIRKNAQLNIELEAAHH

One assay concerns the target NAMPT enzyme (Homo sapiens (Human), UniProt P43490). Put plainly: Enzyme Assay and NMN Detection (NAMPT reaction, fluorescence detection of NMN). To be noted: Table B-1; NAMPT activation, NMN formation. The assay is classed as biochemical. The procedure, abridged: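 NMN formed was read at ex380/em460 after acetophenone/KOH derivatization and formic acid addition, using a same-day calibration curve. Final conditions: NAMPT 16 nM, nicotinamide 5 uM, PRPP 6.25 uM, ATP 120 uM, pyrophosphatase 0.04 U/ml, pH 7.5 HEPES buffer with MgCl2 and TCEP, 2 h at room temperature.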
Broadly, the pEC50 is the EC50 on a negative log10 scale, so that one unit is a factor of ten. A higher pEC50 goes with a small EC50. `O=C(NCc1cn[nH]c1)Nc1ccc(S(=O)(=O)N2CC3CCC(C2)O3)cc1` [1-[4-(8-Oxa-3-aza-bicyclo[3.2.1]octane-3-sulfonyl)-phenyl]-3-(1H-pyrazol-4-ylmethyl)-urea] showed a pEC50 of 5.70 to 7.00.

The assay is the same for the next values; noted with them: Table B-2; NAMPT activation, NMN formation.
With `O=C(NCc1ccncc1)Nc1ccc(S(=O)(=O)N2CCc3cccc(Cl)c3C2)cc1` [1-[4-(8-Chloro-3,4-dihydro-1H-isoquinoline-2-sulfonyl)-phenyl]-3-pyridin-4-ylmethyl-urea], the pEC50 is more than 7.00.
Still for that read-out and setting: as for `O=C(NCc1ccncc1)Nc1ccc(S(=O)(=O)N2CCc3cccc(F)c3C2)cc1` [1-[4-(8-Fluoro-3,4-dihydro-1H-isoquinoline-2-sulfonyl)-phenyl]-3-pyridin-4-ylmethyl-urea], the figure is more than 7.00.
Same read-out and setting: as for `Cc1cccc2c1CN(S(=O)(=O)c1ccc(NC(=O)NCc3ccncc3)cc1)CC2` [1-[4-(8-Methyl-3,4-dihydro-1H-isoquinoline-2-sulfonyl)-phenyl]-3-pyridin-4-ylmethyl-urea], the figure is more than 7.00; as for `O=C(NCc1ccncc1)Nc1ccc(S(=O)(=O)N2CC3CCC(C2)O3)cc1` [1-[4-(8-Oxa-3-aza-bicyclo[3.2.1]octane-3-sulfonyl)-phenyl]-3-pyridin-4-ylmethyl-urea], 5.70 to 7.00; as for `O=C(NCc1ccncc1)Nc1ccc(S(=O)(=O)N2CCOCC2)cc1` [1-[4-(Morpholine-4-sulfonyl)-phenyl]-3-pyridin-4-ylmethyl-urea], 5.70 to 7.00.
The compound `O=C(NCc1ccncc1)Nc1ccc(S(=O)(=O)N2CCNCC2)cc1` [1-[4-(Piperazine-1-sulfonyl)-phenyl}-3-pyridin-4-ylmethyl-urea] showed a pEC50 of 4.70 to 5.30.
The compound `O=C(NCc1ccncc1)Nc1ccc(S(=O)(=O)N2CCCCC2)cc1` [1-[4-(Piperidine-1-sulfonyl)-phenyl]-3-pyridin-4-ylmethyl-urea] showed a pEC50 of 5.70 to 7.00.

Still in this assay, the particulars now being: Table B-3; NAMPT activation, NMN formation.
The compound `O=C(NCc1ccccn1)Nc1ccc(S(=O)(=O)N2CC3CCC(C2)O3)cc1` [1-[4-(8-Oxa-3-aza-bicyclo[3.2.1]octane-3-sulfonyl)-phenyl]-3-pyridin-2-ylmethyl-urea] showed a negative-log EC50 (pEC50) of less than 4.70.
On the same count and under the same terms, as for `CCOC(=O)c1ccc2c(cnn2C(=O)NCc2ccncc2)c1` [1-[(Pyridin-4-ylmethyl)-carbamoyl]-1H-indazole-5-carboxylic acid ethyl ester], the figure is less than 4.70.

Staying with this assay, now noted: Table B-4; NAMPT activation, NMN formation.
`COc1ccc(-c2ccccc2S(=O)(=O)c2ccc(NC(=O)NCc3cn[nH]c3)cc2)cc1` [1-[4-(4′-Methoxy-biphenyl-2-sulfonyl)-phenyl]-3-(1H-pyrazol-4-ylmethyl)-urea] showed a pEC50 of 4.70 to 5.30.
Compound `Cc1ccc(-c2ccccc2S(=O)(=O)c2ccc(NC(=O)NCc3cn[nH]c3)cc2)cc1` [1-[4-(4′-Methyl-biphenyl-2-sulfonyl)-phenyl]-3-(1H-pyrazol-4-ylmethyl)-urea] gave a negative logarithm of the EC50 (pEC50) of 4.70 to 5.30.
As for `O=C(NCc1cn[nH]c1)Nc1ccc(S(=O)(=O)c2ccc(Cl)cn2)cc1` [1-[4-(5-Chloro-pyridine-2-sulfonyl)-phenyl]-3-(1H-pyrazol-4-ylmethyl)-urea], the pEC50 was 5.70 to 7.00.
The same measure, in the same setting: the figure for `Cn1nc(-c2ccc(NC(=O)NCc3cn[nH]c3)cc2)c2cc(F)ccc21` [1-[4-(5-Fluoro-1-methyl-1H-indazol-3-yl)-phenyl]-3-(1H-pyrazol-4-ylmethyl)-urea] is 5.70 to 7.00; for `COc1ccc2c(c1)c(-c1ccc(NC(=O)NCc3cn[nH]c3)cc1)nn2C` [1-[4-(5-Methoxy-1-methyl-1H-indazol-3-yl)-phenyl]-3-(1H-pyrazol-4-ylmethyl)-urea] it is 5.70 to 7.00; for `Cc1ccc(S(=O)(=O)c2ccc(NC(=O)NCc3cn[nH]c3)cc2)nc1` [1-[4-(5-Methyl-pyridine-2-sulfonyl)-phenyl]-3-(1H-pyrazol-4-ylmethyl)-urea] it is 5.70 to 7.00.
On the same count and under the same terms, as for `Cc1ccc(S(=O)(=O)c2ccc(NC(=O)NCc3cn[nH]c3)cc2)cn1` [1-[4-(6-Methyl-pyridine-3-sulfonyl)-phenyl]-3-(1H-pyrazol-4-ylmethyl)-urea], the figure is 5.70 to 7.00; as for `O=C(NCc1cn[nH]c1)Nc1ccc(S(=O)(=O)c2cnccn2)cc1` [1-[4-(Pyrazine-2-sulfonyl)-phenyl]-3-(1H-pyrazol-4-ylmethyl)-urea], 5.70 to 7.00.
In the case of `O=C(NCc1cn[nH]c1)Nc1ccc(Nc2nc(-c3ccccc3Cl)cs2)cc1` [1-{4-[4-(2-Chloro-phenyl)-thiazol-2-ylamino]-phenyl}-3-(1H-pyrazol-4-ylmethyl)-urea], the pEC50 is 4.70 to 5.30.
On the same count and under the same terms, the figure for `O=C(NCc1cn[nH]c1)Nc1ccc(Nc2nc(-c3ccccc3F)cs2)cc1` [1-{4-[4-(2-Fluoro-phenyl)-thiazol-2-ylamino]-phenyl}-3-(1H-pyrazol-4-ylmethyl)-urea] is 5.70 to 7.00; for `O=C(NCc1cn[nH]c1)Nc1ccc(Nc2nc(-c3cccc(Cl)c3)cs2)cc1` [1-{4-[4-(3-Chloro-phenyl)-thiazol-2-ylamino]-phenyl}-3-(1H-pyrazol-4-ylmethyl)-urea] it is 5.30 to 5.70; for `O=C(NCc1cn[nH]c1)Nc1ccc(Nc2nc(-c3cccc(F)c3)cs2)cc1` [1-{4-[4-(3-Fluoro-phenyl)-thiazol-2-ylamino]-phenyl}-3-(1H-pyrazol-4-ylmethyl)-urea] it is 5.70 to 7.00.
Compound `O=C(NCc1cn[nH]c1)Nc1ccc(Nc2nc(-c3ccc(Cl)cc3)cs2)cc1` [1-{4-[4-(4-Chloro-phenyl)-thiazol-2-ylamino]-phenyl}-3-(1H-pyrazol-4-ylmethyl)-urea] had a pEC50 of 5.70 to 7.00.
Compound `O=C(NCc1cn[nH]c1)Nc1ccc(Nc2nc(-c3ccc(F)cc3)cs2)cc1` [1-{4-[4-(4-Fluoro-phenyl)-thiazol-2-ylamino]-phenyl}-3-(1H-pyrazol-4-ylmethyl)-urea] showed a pEC50 of 5.70 to 7.00.

The assay is the same for the next values; noted with them: Table B-5; NAMPT activation, NMN formation.
Regarding `O=C(NCc1cnco1)Nc1ccc(S(=O)(=O)c2ccc(Cl)cn2)cc1` [1-[4-(5-Chloro-pyridine-2-sulfonyl)-phenyl]-3-oxazol-5-ylmethyl-urea], the negative logarithm of the EC50 (pEC50) was 5.30 to 5.70.
For the compound `Cn1nc(-c2ccc(NC(=O)NCc3cnco3)cc2)c2cc(F)ccc21` [1-[4-(5-Fluoro-1-methyl-1H-indazol-3-yl)-phenyl]-3-oxazol-5-ylmethyl-urea], the pEC50 was 5.30 to 5.70.
With `COc1ccc2c(c1)c(-c1ccc(NC(=O)NCc3cnco3)cc1)nn2C` [1-[4-(5-Methoxy-1-methyl-1H-indazol-3-yl)-phenyl]-3-oxazol-5-ylmethyl-urea], the negative logarithm of the EC50 (pEC50) was less than 4.70.
Same read-out and setting: as for `O=C(NCc1cnco1)Nc1ccc(S(=O)(=O)c2ccc(Cl)nc2)cc1` [1-[4-(6-Chloro-pyridine-3-sulfonyl)-phenyl]-3-oxazol-5-ylmethyl-urea], the figure is 5.30 to 5.70; as for `O=C(NCc1cnco1)Nc1ccc(S(=O)(=O)c2ccc(O)nc2)cc1` [1-[4-(6-Hydroxy-pyridine-3-sulfonyl)-phenyl]-3-oxazol-5-ylmethyl-urea], 5.70 to 7.00.
Same read-out and setting: as for `COc1ccc(S(=O)(=O)c2ccc(NC(=O)NCc3cnco3)cc2)cn1` [1-[4-(6-Methoxy-pyridine-3-sulfonyl)-phenyl]-3-oxazol-5-ylmethyl-urea], the figure is 5.70 to 7.00; as for `Cc1ccc(S(=O)(=O)c2ccc(NC(=O)NCc3cnco3)cc2)cn1` [1-[4-(6-Methyl-pyridine-3-sulfonyl)-phenyl]-3-oxazol-5-ylmethyl-urea], 5.70 to 7.00.

The same assay, now with this note: Table B-6; NAMPT activation, NMN formation.
`COc1ccc(-c2ccccc2S(=O)(=O)c2ccc(NC(=O)NCc3ccncc3)cc2)cc1` [1-[4-(4′-Methoxy-biphenyl-2-sulfonyl)-phenyl]-3-pyridin-4-ylmethyl-urea]: the pEC50 is 4.70 to 5.30.
The same measure, in the same setting: the figure for `Cc1ccc(-c2ccccc2S(=O)(=O)c2ccc(NC(=O)NCc3ccncc3)cc2)cc1` [1-[4-(4′-Methyl-biphenyl-2-sulfonyl)-phenyl]-3-pyridin-4-ylmethyl-urea] is 5.30 to 5.70; for `O=C(NCc1ccncc1)Nc1ccc(S(=O)(=O)c2ccc(Cl)cn2)cc1` [1-[4-(5-Chloro-pyridine-2-sulfonyl)-phenyl]-3-pyridin-4-ylmethyl-urea] it is 5.70 to 7.00; for `Cn1nc(-c2ccc(NC(=O)NCc3ccncc3)cc2)c2cc(F)ccc21` [1-[4-(5-Fluoro-1-methyl-1H-indazol-3-yl)-phenyl]-3-pyridin-4-ylmethyl-urea] it is 5.70 to 7.00.
On to `COc1ccc2c(c1)c(-c1ccc(NC(=O)NCc3ccncc3)cc1)nn2C` [1-[4-(5-Methoxy-1-methyl-1H-indazol-3-yl)-phenyl]-3-pyridin-4-ylmethyl-urea], for which the pEC50 is 5.70 to 7.00.
With `O=C(NCc1ccncc1)Nc1ccc(S(=O)(=O)c2ccc(Cl)nc2)cc1` [1-[4-(6-Chloro-pyridine-3-sulfonyl)-phenyl]-3-pyridin-4-ylmethyl-urea], the pEC50 was 5.70 to 7.00.
Same read-out and setting: the figure for `O=C(NCc1ccncc1)Nc1ccc(S(=O)(=O)c2ccc(O)nc2)cc1` [1-[4-(6-Hydroxy-pyridine-3-sulfonyl)-phenyl]-3-pyridin-4-ylmethyl-urea] is 5.70 to 7.00.
On the same count and under the same terms, the figure for `COc1ccc(S(=O)(=O)c2ccc(NC(=O)NCc3ccncc3)cc2)cn1` [1-[4-(6-Methoxy-pyridine-3-sulfonyl)-phenyl]-3-pyridin-4-ylmethyl-urea] is 5.70 to 7.00.
Same read-out and setting: the figure for `Cc1ccc(S(=O)(=O)c2ccc(NC(=O)NCc3ccncc3)cc2)cn1` [1-[4-(6-Methyl-pyridine-3-sulfonyl)-phenyl]-3-pyridin-4-ylmethyl-urea] is 5.70 to 7.00; for `O=C(NCc1ccncc1)Nc1ccc(Nc2nc3ccccc3s2)cc1` [1-[4-(Benzothiazol-2-ylamino)-phenyl]-3-pyridin-4-ylmethyl-urea] it is 4.70 to 5.30.
Compound `O=C(NCc1ccncc1)Nc1ccc(S(=O)(=O)c2cnccn2)cc1` [1-[4-(Pyrazine-2-sulfonyl)-phenyl]-3-pyridin-4-ylmethyl-urea] showed a pEC50 of 5.70 to 7.00.
The same measure, in the same setting: the figure for `O=C(NCc1ccncc1)Nc1ccc(S(=O)(=O)c2cccnc2)cc1` [1-[4-(Pyridine-3-sulfonyl)-phenyl]-3-pyridin-4-ylmethyl-urea] is 5.70 to 7.00.
